# Patent US20260265694A1, “USE OF A VITISIN COMPOUND FOR THE PRODUCTION OF HEMATOPOIETIC CELLS” (ETABLISSEMENT FRANCAIS DU SANG, priority 2022, published 2026)
# Test system: MEP isolated from peripheral blood CD34+ cells
# Test: ERYTHRO 1 PROTOCOL on sorted MEP cells
# Type: cell-based, human
# Settings: MEPs, 10 μM
# Experimental: b. Isolation of CMP and MEP Progenitors The CD34^+ cells previously isolated via an immunomagnetic technique were marked with anti-CD34-BV421 (1:100 000), anti-CD45RA-BB517 (1:100 000), anti-CD123-Alexa647 (1.5:100 000) antibodies (BD Pharmingen) and a cocktail of anti-LIN-PE antibodies (2:100 000) for 15 minutes. The LIN cocktail antibodies are directed against markers specific to mature cells (CD2, CD3, CD4, CD7, CD8, CD10, CD11b, CD14, CD19, CD20, CD56, CD235a). This LIN cocktail thus allows enrichment in “LIN^neg” immature cells by depletion of mature cells. After incubation with these antibodies, the cells are rinsed with a solution of PBS^+ (PBS+2% Fetal Calf Serum (FCS)) and centrifuged (430×g, 10 min. 4° C.). After resuspension of the cells in PBS^+, CMPs with the phenotype CD34^+LIN^negCD123^+CD45RA^neg and MEPs with the phenotype CD34^+LIN^negCD123^negCD45RA^neg are sorted and harvested using an ARIA cell sorter (Manz et al., 2002). c. Isolation of BFU-E and CFU-E Progenitors Placental blood CD34^+ cells, previously isolated by immunomagnetic sorting, are marked with antibodies specific to surface antigens allowing them to target and discriminate BFU-E primitive erythrocyte progenitors, namely anti-CD34, anti-GPA, anti CD123 and anti-CD36 antibodies. Primitive erythrocyte progenitors (BFU-Es) are defined by the following phenotype: CD34^+CD123^negCD36^negGPA^neg. […]
structure (smiles),measurement,setting,value
"Oc1ccc(C2Oc3ccc(/C=C/c4cc(O)cc5c4[C@H](c4cc(O)cc(O)c4)[C@@H](c4ccc(O)cc4)O5)cc3C2c2cc(O)cc3c2C(c2cc(O)cc(O)c2)C(c2ccc(O)cc2)O3)cc1 (stereo in doubt) [vitisin B, 5-[(2R,2'S,3R,3'S)-5-[(1E)-2-[(2S,3S)-3-(3,5-Dihydroxyphenyl)-2,3-dihydro-6-hydroxy-2-(4-hydroxyphenyl)-4-benzofuranyl]ethenyl]-2,2′,3,3′-tetrahydro-6′-hydroxy-2,2′-bis(4-hydroxyphenyl)[3,4′-bibenzofuran]-3′-yl]-1,3-benzenediol]",erythrocyte differentiation (acquisition of the phenotype CD71+GPA+),FIG. 4A,acceleration of erythrocyte differentiation
same,reduction relative to the control in CD71 membrane expression,"as early as D7, FIG. 4B",up to 40%
